Experimental data published in patent publication US20080214521A1, “Sensitization of Drug-Resistant Lung Caners to Protein Kinase Inhibitors” (priority 2005, published 2008).

Tests used:
[1] = system: phosphorylation of protein kinase B/AKT and glycogen synthase kinase 3-beta; assay: Immunoblotting of downstream targets of PKC signal transduction after PMA stimulation; format: cell-based; conditions: drug-resistant and drug-sensitive cell lines; PKC412 1 to 10 μM for 2 hours, then PMA 1 μM 10 minutes
Description: Immunoblotting and cell fractionation was performed as described previously (38, 39) using primary antibodies against caspase-9 (Chemicon), caspase-3, BCL-XL, cytochrome c (BD Pharmingen), BAX, BAK, PARP (Upstate), AKT, phospho-AKT, GSK-3beta, phospho-GSK3beta (Cell Signaling), and actin (ICN).

A549 cells = assay: Drug synergy analysis, PKC412 with etoposide (VP16), sub-G1 flow cytometry; format: cell-based
Description: (§1) All other drugs were purchased from Sigma.
(§2) After 48 hours, the fraction of cells with subdiploid DNA content (sub-G1) was quantified by flow cytometry. DMSO-treated cells (white bars) served as negative controls.

NCI-H460 cells = assay: as above; format: cell-based; conditions: simultaneous 25 μM etoposide and escalating PKC412 (0-100 μM), 48 hours
Description: as §1, §2

NCI-H1299 = assay: Cell cycle distribution by flow cytometry; format: cell-based; conditions: 50 μM PKC412, 24 hours
[2] = system: NSCLC cell lines expressing BAK under the control of a tetracycline-regulated promoter; assay: Apoptosis induced by PKC inhibitors with conditional BAK expression (DOX), sub-G1 / TMRE / caspase cleavage immunoblot; format: cell-based; conditions: drug-resistant NSCLC cells (A549, NCI-H1299), 48 hours
Description: NSCLC cell lines known in the art were obtained. Unless otherwise specified, NSCLC cells were grown on tissue culture dishes (BD Falcon) in Dulbecco's Modified Eagle Medium supplemented with 10% fetal bovine serum, glucose, L-glutamine and penicillin/streptomycin in a humidified atmosphere at 5% CO2. NSCLC cells conditionally expressing transgenic BAK were obtained using the BD RevTet-On vector system (BD Clontech). A BamHI fragment encoding the full length human BAK cDNA was generated by PCR, confirmed by sequencing, and cloned into the pRevTRE vector. A retroviral BCL-XL expression vector has been described previously (26). Replication-defective retroviral virions were produced by standard calcium phosphate transfection in the FNX ampho packaging cell line (a gift from Dr G. P. Nolan, Stanford). Transductions were performed using filtered supernatants, and populations were selected with hygromycin B and puromycin in the absence of tetracycline, or were obtained by fluorescence activated cell sorting (Coulter) of EGFP-positive cells. […]
Cells with subdiploid DNA content (sub-G1) were quantified by flow cytometry after 48 hours. […] Cells that maintained Δψm (TMRE+) were quantified by TMRE-staining and flow cytometry after 48 hours. […] Whole cell extracts were obtained at 24 hours, and the cleavage of caspase-9, caspase-3 and the caspase substrate PARP was detected by immunoblotting.

[3] = phase I study, cited from earlier work
cancer cell lines = conditions: cited from earlier work
lung cancer xenograft = conditions: mouse, in vivo; cited from earlier work
NCI-H1299 cells = assay: Drug synergy analysis, PKC412 with etoposide (VP16), sub-G1 flow cytometry
[4] = system: NSCLC cells expressing BAK under the control of a tetracycline-regulated promoter; assay: Apoptosis facilitated by conditionally expressed transgenic BAK; format: cell-based; conditions: BAK induced by DOX; data not shown
[5] = simultaneous 25 μM etoposide and escalating PKC412 (0-100 μM), 48 hours

| Compound | phosphorylation of downstream targets of PKC signal transduction (AKT, GSK-3beta) [1] | apoptosis after PKC412 pre-treatment versus VP16 pre-treatment (A549 cells; 50 μM PKC412 and 25 μM etoposide, sequential, 24 hours each) | cytotoxicity of combined treatment with PKC412 and VP16 (A549 cells; [5]) | apoptosis with PKC412 plus VP16 compared to VP16 alone (NCI-H460 cells) | cell cycle distribution after pre-treatment with PKC412 (NCI-H1299) | sensitisation to PKC412-mediated apoptosis by inducible expression of BAK [2] | safety of combination with CDDP/gemcitabine ([3]; patients with advanced NSCLC, with standard cytotoxic regimen of CDDP/gemcitabine) | safety and feasibility of oral administration ([3]; patients with advanced cancers, oral) | effect on cancer cell lines (cancer cell lines) | effects in murine xenograft model of lung cancer (lung cancer xenograft) | apoptosis induced by VP16 given subsequently to PKC412 (NCI-H1299 cells; 50 μM PKC412 24 hours, then 25 μM etoposide another 24 hours) | effect of PKC412 on VP16-induced apoptosis (NCI-H1299 cells; [5]) | effect on apoptosis facilitated by transgenic BAK [4] |
| --- | --- | --- | --- | --- | --- | --- | --- | --- | --- | --- | --- | --- | --- |
| CO[C@@H]1[C@H](N(C)C(=O)c2ccccc2)C[C@H]2O[C@]1(C)n1c3ccccc3c3c4c(c5c6ccccc6n2c5c31)C(=O)NC4 [PKC412, N-[(9S,10R,11R,13R)-2,3,10,11,12,13-hexahydro-10-methoxy-9-methyl-1-oxo-9,13-epoxy-1H,9H-diindolo[1,2,3-gh:3′,2′,1′-Im]pyrrolo[3,4j][1,7]benzodiazonin-11-yl]-N-methylbenzamide] | effectively reduced | did not significantly differ | additive cytotoxicity | no further increase in apoptosis | cell cycle arrest in the G2/M-phase | Sensitized | established | safe and feasible | induced cell cycle arrest or apoptosis | antitumoral and antiangiogenic effects | reduced the amount of apoptosis | protected NCI-H1299 cells against VP16-induced apoptosis | – |
| CN[C@@H]1C[C@H]2O[C@@](C)([C@@H]1OC)n1c3ccccc3c3c4c(c5c6ccccc6n2c5c31)C(=O)NC4 [staurosporine] | – | – | – | – | – | – | – | – | induced cell cycle arrest or apoptosis | antitumoral and antiangiogenic effects | – | – | – |
| zVAD-fmk | – | – | – | – | – | – | – | – | – | – | – | – | inhibited |
